# Patent US20070122830A1, “Prohibitin-directed diagnostics and therapeutics for cancer and chemotherapeutic drug resistance” (Aurelium BioPharma Inc., priority 2005, published 2007)
# Tested on: hematological tumor cells
# Assay: Hematological tumor model in MHC-matched mice, prohibitin siRNA plus chemotherapy
# Assay type: in vivo
# Conditions: Example 8
# Method: In order to determine whether targeting prohibitin is useful in treating a preexisting cancerous condition, MHC-matched mice, 5 to 7 weeks old, receive a subcutaneous (s.c.) injection of the cells 5×10^5 hematological tumor cells, and tumors are allowed to form. Tumor growth starting on the first day of treatment is measured by palpitation, and the volume of the xenograft is monitored every 4 days. Tumors are allowed to grow to a sufficient size (5.5 mm) for appropriate analysis of the effects of prohibitin treatment on tumor sensitivity to chemotherapeutic drugs. Mice are then treated with a prohibitin siRNA (3 μg daily for 16 days) designed to decrease the level of expression of prohibitin. […]
# The animal's weight is measured every 4 days. Tumor growth starting on the first day of treatment is measured by palpitation and the volume of the xenograft is monitored every 4 days. […] Tumor tissue is excised from the mice and its weight is measured. […] Tumor cell count is determined by trypsinizing tumors in DMEM medium supplemented with 10% fetal bovine serum until cells are in free suspension. […]
# Liposome formulations are produced as described previously (Shi et al. (2000) Proc. Natl. Acad. Sci. USA. 97(13): 7567-7572). […] The mean vesicle diameters are determined by quasielastic light scattering using a Microtrac Ultrafine Particle Analyzer (Leeds-Northrup, St. Petersburg, Fla.). […]
substance,measurement,setting,value
"prohibitin siRNA: siRNA duplex to human prohibitin mRNA nt 425-443; sense 5′-GGAAGUGGUCUGUCUGUUAtt-3′, antisense 5′-UAACAGACAGACCACUUCCtt-3′ (sense GGAAGUGGUCUGUCUGUUATT; antisense UAACAGACAGACCACUUCCTT; chemistry not given here)",sensitivity of hematological tumors to chemotherapeutic drug treatment,siRNA 3 μg daily for 16 days with taxol or doxorubicin,increases the sensitivity
same,"prognosis (tumor size, tumor cells) vs targeting agent only or drug only",siRNA plus taxol or doxorubicin,"better prognosis (i.e., smaller tumor or fewer tumor cells)"
